One test deals with mouse ES cells (SK7). The test can be described thus: Immunohistochemical analysis of AFP-, Pdx1/GFP- and Alb-expressing cells in mouse ES cells differentiated on M15 cells. The note with it: for number of AFP-positive cells: factor added after d4, 10% KSR, 2,000 mg/L glucose (FIG. 3); for AFP expression, one factor added: one factor added d4 to d8, KSR, glucose 2,000 mg/L (FIG. 2B). Format: cell-based. On the procedure:
A previously reported SK7 cell line (mouse ES cells) having a Pdx1 promoter-derived GFP reporter-introduced gene was used (International Publication WO2006/126574). The SK7 ES cells were maintained on mouse embryonic fibroblasts (MEF), using a Glasgow minimum essential medium (Invitrogen) supplemented with 1,000 units/mL leukemia inhibitory factor (Chemicon), 15% KSR (knockout serum replacement; Gibco), 1% fetal bovine serum (FBS; Hyclone), 100 μM nonessential amino acid (Invitrogen), 2 mM L-glutamine (Invitrogen), 1 mM sodium pyruvate (Invitrogen), 50 units/mL penicillin, 50 μg/mL streptomycin (Invitrogen) and 100 μM β-mercaptoethanol.
Thereafter, the ES cells (the number of cells: 5,000 and 20,000, respectively) were inoculated on a 24-well or 6-well plate (Nunc) that had previously been coated with the M15 cells. Subsequently, using DMEM containing 100 μM nonessential amino acid, 2 mM L-glutamine, 50 units/mL penicillin, 50 μg/mL streptomycin and 100 μM β-mercaptoethanol, the cells were cultured in a differentiation culture solution containing 10% FBS and 4,500 mg/L glucose from the initial day of culture (d0) to day 4 (d4), and after d4, the cells were then cultured in another culture solution containing 10% KSR and 2,000 mg/L glucose. Thus, the cells were cultured for a maximum of 30 days. In order to induce the […] endoderm, activin A (20 ng/mL) and bFGF (50 ng/mL) were added during the period from d0 to d4. Moreover, HGF (10 ng/mL) and dexamethasone (1 μM) were added during the period from d4 to d30. The culture solution was replaced with a fresh one containing a growth factor every two days. The details of such growth factor will be described at the end of the diferentiation section.
Recombinant human activin A (R&D Systems): 20 ng/mL; recombinant human bFGF (Peprotech): 50 ng/mL; recombinant human BMP4 (R&D Systems): 50 ng/mL; SU5402 (Mohammadi, et al., (1997). Science 276, 955-60.) (Calbiochem): 10 μM; recombinant mouse Noggin/Fc Chimera (R&D Systems): 100 ng/mL; recombinant human hepatic cell growth factor (HGF, Peprotech): 10 ng/mL; dexamethasone (Dex, Sigma): 1 μM; recombinant human oncostatin M (OSM, Sigma): 10 ng/mL.
For whole mount immunocytochemical analysis, ES cells were inoculated on 24-well Thennanox coverslips (Nunc). Using TCS-SP2 Spectral Confocal Scanning System (Leica), a confocal image was obtained. Using IX 71 Inverted (Olympus), a phase-contrast image was obtained. The following antibodies were used in detection: mouse anti-GFP (Roche), rabbit anti-α-fetoprotein (AFP, Biomeda), goat anti-albumin (Sigma), fluorescein isothiocyanate (FITC)-labeled Dolichos biflorus agglutinin (DBA) lectin (Sigma), rabbit anti-α-1-anti-trypsin (Sigma), rabbit anti-CYP3A2 (Biomol), rabbit anti-CYP7A1 (Santa Cruz), and mouse anti-Oct3/4 (Santa Cruz). As secondary antibodies, an Alexa568-labeled goat anti-rabbit antibody, donkey anti-goat antibody (Molecular Probes), and an Alexa488-labeled goat anti-mouse antibody, goat anti-rabbit antibody, and donkey anti-goat antibody (Molecular Probes) were used. The cells were subjected to counterstaining using DAPI (Roche). In order to quantify the number of the Afp-expressing cells of FIG. 3B, the region of an Afp-positive stained image was analyzed using Lumina Vision program (Mitani Corporation).

For test [1], the system named is mouse ES cell-derived hepatic cells. Put plainly: Albumin secretion analysis by ELISA. Format: cell-based. On the procedure: The medium was replaced with a fresh one, and 24 hours later, the conditioned medium was recovered. Using Lebis ELISA kit (Shibayagi), albumin secretion was analyzed.
It has been reported that OsM induces maturation of mouse fetal liver cells (Kamiya, A., Kinoshita, T. & Miyajima, A. (2001) Oncostatin M and hepatocyte growth factor induce hepatic maturation via distinct signaling pathways. FEBS Lett 492, 90-94). Thus, the influence of OsM on albumin secretion was analyzed by ELISA. The effect of OsM to enhance albumin secretion was not observed until […].
In general terms: ELISA stands for enzyme-linked immunosorbent assay.

For the molecule `Cc1c[nH]c(/C=C2\C(=O)Nc3ccccc32)c1CCC(=O)O` [SU5402, reference compound], the “number of AFP-positive cells” value with mouse ES cells (SK7) is “decreased”. As to “HGF: recombinant human hepatic cell growth factor (Peprotech)”, in the test with mouse ES cells (SK7), the “AFP expression, one factor added” value is reported as “promoted in the order of Dex>HGF>OsM”. Turning to Noggin, the “number of AFP-positive cells” value with mouse ES cells (SK7) was “almost all AFP-expressing cells disappeared”.

“bFGF: recombinant human bFGF (Peprotech)”: the “number of AFP-positive cells” value with mouse ES cells (SK7) was “increased”. Also, the “AFP-expressing cells when bFGF was added to Noggin” value in the test with mouse ES cells (SK7) (in the presence of Noggin, after d4, 10% KSR, 2,000 mg/L glucose (FIG. 3)) is “recovered”.

B1: OsM: recombinant human oncostatin M (Sigma) (protein, UniProt P13725 26-221, looked up)
Oncostatin-M: AAIGSCSKEYRVLLGQLQKQTDLMQDTSRLLDPYIRIQGLDVPKLREHCRERPGAFPSEETLRGLGRRGFLQTLNATLGCVLHRLADLEQRLPKAQDLERSGLNIEDLEKLQMARPNILGLRNNIYCMAQLLDNSDTAEPTKAGRGASQPPTPTPASDAFQRKLEGCRFLHGYHRFMHSVGRVFSKWGESPNRSRR
For B1, in the test on mouse ES cells (SK7), the “AFP expression, one factor added” value is recorded as “promoted in the order of Dex>HGF>OsM”. In addition, the “increase of albumin secretion” value in test [1] (d50 and d60, medium with OsM, Dex and HGF versus control medium with only Dex and HGF, 24 hours) is recorded as 2 times. Besides, in test [1] (until c40, OsM added to Dex and HGF), the “effect to enhance albumin secretion” value is recorded as “not observed”.

The values above are taken from patent publication US8309353B2, “Method for induction of differentiation of ES cell” (Kumamoto University, priority 2007, dated 2012).
